The results in this text go back to patent publication US10323026B2, “Heterocyclic compound” (Takeda Pharmaceutical Company Limited, priority 2016, dated 2019).

For orientation: inhibition means the change of the read-out against control, counted positive when it falls.

The target of the first experiment is T1, His-hMAGL (recombinant polyhistidine tagged human MAGL protein) (Homo sapiens, UniProt Q99685).
T1 construct: polyhistidine (His) (N); made in house; host or cells: E. coli BL21(DE3)
T1 sequence (Q99685 1-303): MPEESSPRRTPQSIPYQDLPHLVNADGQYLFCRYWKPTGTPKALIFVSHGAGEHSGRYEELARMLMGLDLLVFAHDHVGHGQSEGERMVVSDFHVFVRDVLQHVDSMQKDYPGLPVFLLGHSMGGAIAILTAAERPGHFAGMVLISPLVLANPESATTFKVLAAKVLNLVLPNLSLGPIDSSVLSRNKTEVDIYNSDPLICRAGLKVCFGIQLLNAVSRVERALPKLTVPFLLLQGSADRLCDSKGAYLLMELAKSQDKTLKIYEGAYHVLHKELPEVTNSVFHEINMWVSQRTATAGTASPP
As to the kind of experiment: Measurement of MAGL inhibitory activity (RapidFire-mass spectrometry of arachidonic acid produced from 2-arachidonylglycerol). It is filed as biochemical. The conditions noted are these: test compound 10 μM; His-hMAGL; substrate 2-arachidonylglycerol; 60 min preincubation. The procedure: Furthermore, acetonitrile (50 μL) containing 3 μM arachidonic acid-d8 (Cayman Chemical Company) was added and the mixture was stirred.
The amount of arachidonic acid in the obtained enzyme reaction mixture was calculated by measuring by RapidFire-mass spectrometry and correcting by the amount of arachidonic acid-d8. High Throughput online solid phase extraction was performed using RapidFire 300™ system (Agilent Technologies, Inc.). Samples were loaded on SPE C4 cartridge (Agilent Technologies, Inc.) and desalted with 0.2 (v/v) % acetic acid (Wako Pure Chemical Industries, Ltd.) in ultrapure water/acetonitrile (70/30, v/v) at a flow rate of 1.5 mL/min, eluted at a flow rate of 0.5 mL/min with 0.2(v/v) % acetic acid dissolved in acetonitrile/ultrapure water (90/10, v/v), and injected into the mass spectrometry part. The injection needle was washed with ultrapure water (500 millisecond) and acetonitrile (500 millisecond) to minimize carry-over. […] The RapidFire300 system was controlled by RapidFire UI software version 3.6 (Agilent Technologies, Inc.).
The mass spectrometry of the resultant product was performed using API4000™ triple quadrupole mass spectrometer (AB SCIEX) equipped with an electrospray ion source (TurboIon Spray™) in a negative selected reaction monitoring (SRM) mode. The conditions of SRM are shown below. The parameters of the instrument were optimized as follows: capillary temperature 600° C., ion spray voltage −4.5 kV, collision gas 8, curtain gas 15 psi, ion source gas 1 60 psi, ion source gas 2 60 psi. The mass spectrometer was controlled by Analyst™ software version 1.5.1 (AB SCIEX). The peak area integration was analyzed using RapidFire integrator software version 3.6 (Agilent Technologies, Inc.).
MAGL inhibitory rate (%) was calculated according to the following calculation formula. (1-(arachidonic acid production amount of test compound addition group−arachidonic acid production amount of enzyme-free group)÷(arachidonic acid production amount of test compound-free group−arachidonic acid production amount of enzyme-free group))×100
Consider `CC(Oc1ccc(F)cc1C(F)(F)F)C1CCN(C(=O)[C@H]2C[C@]3(COC(=O)N3)C2)CC1` (stereo partly shown) [Example 66, (2s,4s)-2-((4-(1-(4-fluoro-2-(trifluoromethyl)phenoxy)ethyl)piperidin-1-yl)carbonyl)-7-oxa-5-azaspiro[3.4]octan-6-one], for which the “% inhibition (10 μM)” value is 100%.
Still for that read-out and setting: for `CC(Oc1ccc(F)cc1C(F)(F)F)C1CCN(C(=O)[C@H]2C[C@]3(COC(=O)N3)C2)CC1` (stereo partly shown) [Example 67, (2s,4s)-2-((4-(1-(4-fluoro-2-(trifluoromethyl)phenoxy)ethyl)piperidin-1-yl)carbonyl)-7-oxa-5-azaspiro[3.4]octan-6-one] the value was 100%.
Turning to `CC(Oc1c(F)cc(F)cc1F)C1CCN(C(=O)[C@H]2C[C@]3(COC(=O)N3)C2)CC1` (stereo partly shown) [Example 87, (2s,4s)-2-((4-(1-(2,4,6-trifluorophenoxy)ethyl)piperidin-1-yl)carbonyl)-7-oxa-5-azaspiro[3.4]octan-6-one], the “% inhibition (10 μM)” value was 100%.
The same measure, in the same setting: next, `CC(Oc1c(F)cc(F)cc1F)C1CCN(C(=O)[C@H]2C[C@]3(COC(=O)N3)C2)CC1` (stereo partly shown) [Example 88, (2s,4s)-2-((4-(1-(2,4,6-trifluorophenoxy)ethyl)piperidin-1-yl)carbonyl)-7-oxa-5-azaspiro[3.4]octan-6-one]: 100%.

Staying with this experiment, now noted: test compound 10 μM; His-hMAGL; substrate 2-arachidonylglycerol; 60 min preincubation; 10 µM.
`CC1(C2CCN(C(=O)[C@H]3C[C@]4(COC(=O)N4)C3)CC2)Cc2cc(C(F)(F)F)ccc2O1` (stereo partly shown) [Example 68, (2s,4s)-2-((4-(2-methyl-5-(trifluoromethyl)-2,3-dihydro-1-benzofuran-2-yl)piperidin-1-yl)carbonyl)-7-oxa-5-azaspiro[3.4]octan-6-one]: the “% inhibition (10 μM)” value was determined as 100%.
Consider `CC1(C2CCN(C(=O)[C@H]3C[C@]4(COC(=O)N4)C3)CC2)Cc2cc(C(F)(F)F)ccc2O1` (stereo partly shown) [Example 69, (2s,4s)-2-((4-(2-methyl-5-(trifluoromethyl)-2,3-dihydro-1-benzofuran-2-yl)piperidin-1-yl)carbonyl)-7-oxa-5-azaspiro[3.4]octan-6-one], for which the “% inhibition (10 μM)” value was determined as 101%.
For `CC1(C2CCN(C(=O)[C@H]3C[C@]4(COC(=O)N4)C3)CC2)Cc2ccc(C(F)(F)F)cc2O1` (stereo partly shown) [Example 70, (2s,4s)-2-((4-(2-methyl-6-(trifluoromethyl)-2,3-dihydro-1-benzofuran-2-yl)piperidin-1-yl)carbonyl)-7-oxa-5-azaspiro[3.4]octan-6-one], the “% inhibition (10 μM)” value is given as 101%.
The same measure, in the same setting: next, `CC1(C2CCN(C(=O)[C@H]3C[C@]4(COC(=O)N4)C3)CC2)Cc2ccc(C(F)(F)F)cc2O1` (stereo partly shown) [Example 71, (2s,4s)-2-((4-(2-methyl-6-(trifluoromethyl)-2,3-dihydro-1-benzofuran-2-yl)piperidin-1-yl)carbonyl)-7-oxa-5-azaspiro[3.4]octan-6-one]: 101%; `CC(Oc1ccc(F)c(F)c1F)C1CCN(C(=O)[C@H]2C[C@]3(COC(=O)N3)C2)CC1` (stereo partly shown) [Example 81, (2s,4s)-2-((4-(1-(2,3,4-trifluorophenoxy)ethyl)piperidin-1-yl)carbonyl)-7-oxa-5-azaspiro[3.4]octan-6-one]: 100%.
Same read-out and setting: next, `CC(Oc1ccc(F)c(F)c1F)C1CCN(C(=O)[C@H]2C[C@]3(COC(=O)N3)C2)CC1` (stereo partly shown) [Example 82, (2s,4s)-2-((4-(1-(2,3,4-trifluorophenoxy)ethyl)piperidin-1-yl)carbonyl)-7-oxa-5-azaspiro[3.4]octan-6-one]: 100%.

Staying with this experiment, now noted: test compound 10 μM; His-hMAGL; substrate 2-arachidonylglycerol; 60 min preincubation; read-out: % inhibition (10 μM).
Regarding `O=C1N[C@]2(CO1)C[C@H](C(=O)N1CCC(COc3ccc(CCF)cc3F)CC1)C2` [Example 64, (2s,4s)-2-((4-((2-fluoro-4-(2-fluoroethyl)phenoxy)methyl)piperidin-1-yl)carbonyl)-7-oxa-5-azaspiro[3.4]octan-6-one], the inhibition at 10 µM turned out to be 101%.
For the molecule `O=C1N[C@]2(CO1)C[C@H](C(=O)N1CC(COc3cc(C4CC4)c(C(F)(F)F)cc3F)C1)C2` [Example 65, (2s,4s)-2-((3-((5-cyclopropyl-2-fluoro-4-(trifluoromethyl)phenoxy)methyl)azetidin-1-yl)carbonyl)-7-oxa-5-azaspiro[3.4]octan-6-one], the inhibition at 10 µM is 101%.
On the same count and under the same terms, for `Cc1cc(OCC2CN(C(=O)[C@H]3C[C@]4(COC(=O)N4)C3)C2)c(F)cc1C(F)(F)F` [Example 72, (2s,4s)-2-((3-((2-fluoro-5-methyl-4-(trifluoromethyl)phenoxy)methyl)azetidin-1-yl)carbonyl)-7-oxa-5-azaspiro[3.4]octan-6-one] the value was 101%; for `CC(Oc1ccc(F)cc1C(F)(F)F)C1CCN(C(=O)[C@H]2C[C@]3(CCC(=O)N3)C2)CC1` (stereo partly shown) [Example 73, (2r,4s)-2-((4-(1-(4-fluoro-2-(trifluoromethyl)phenoxy)ethyl)piperidin-1-yl)carbonyl)-5-azaspiro[3.4]octan-6-one], 100%.
Still for that read-out and setting: for `CC(Oc1ccc(F)c(F)c1F)C1CCN(C(=O)[C@H]2C[C@]3(CCC(=O)N3)C2)CC1` (stereo partly shown) [Example 74, (2r,4s)-2-((4-(1-(2,3.4-trifluorophenoxy)ethyl)piperidin-1-yl)carbonyl)-5-azaspiro[3.4]octan-6-one] the value was 101%.
Same read-out and setting: next, `O=C1N[C@]2(CO1)C[C@H](C(=O)N1CC(COc3c(Cl)cc(F)cc3Cl)C1)C2` [Example 75, (2s,4s)-2-((3-((2,6-dichloro-4-fluorophenoxy)methyl)azetidin-1-yl)carbonyl)-7-oxa-5-azaspiro[3.4]octan-6-one]: 100%; `O=C1N[C@]2(CO1)C[C@H](C(=O)N1CC(COc3ccc(C(F)(F)F)cc3Cl)C1)C2` [Example 76, (2s,4s)-2-((3-((2-chloro-4-(trifluoromethyl)phenoxy)methyl)azetidin-1-yl)carbonyl)-7-oxa-5-azaspiro[3.4]octan-6-one]: 100%.
For `O=C1N[C@]2(CO1)C[C@H](C(=O)N1CC(COc3ccc(Cl)cc3Cl)C1)C2` [Example 79, (2s,4s)-2-((3-((2,4-dichlorophenoxy)methyl)azetidin-1-yl)carbonyl)-7-oxa-5-azaspiro[3.4]octan-6-one], the inhibition at 10 µM was determined as 100%.
For the molecule `CC(Oc1ccc(F)c(F)c1F)C1CCN(C(=O)[C@H]2C[C@]3(COC(=O)N3)C2)CC1` (stereo partly shown) [Example 80, (2s,4s)-2-((4-(1-(2,3,4-trifluorophenoxy)ethyl)piperidin-1-yl)carbonyl)-7-oxa-5-azaspiro[3.4]octan-6-one], the inhibition at 10 µM worked out at 101%.
With `O=C1N[C@]2(CO1)C[C@H](C(=O)N1CC(COc3cc(C(F)(F)F)cc(C(F)(F)F)c3)C1)C2` [Example 83, (2s,4s)-2-((3-((3,5-bis(trifluoromethyl)phenoxy)methyl)azetidin-1-yl)carbonyl)-7-oxa-5-azaspiro[3.4]octan-6-one], the inhibition at 10 µM was 100%.
Same read-out and setting: for `CC(Oc1c(F)cc(F)cc1F)C1CCN(C(=O)[C@H]2C[C@]3(COC(=O)N3)C2)CC1` (stereo partly shown) [Example 85, (2s,4s)-2-((4-(1-(2,4,6-trifluorophenoxy)ethyl)piperidin-1-yl)carbonyl)-7-oxa-5-azaspiro[3.4]octan-6-one] the value was 100%; for `CCc1cc(OCC2CN(C(=O)[C@H]3C[C@]4(COC(=O)N4)C3)C2)c(F)cc1C(F)(F)F` [Example 86, (2s,4s)-2-((3-((5-ethyl-2-fluoro-4-(trifluoromethyl)phenoxy)methyl)azetidin-1-yl)carbonyl)-7-oxa-5-azaspiro[3.4]octan-6-one], 100%.
